Results from patent EP0033503A2, “Medicaments with cytostatic activity and use of cyclic compounds, in which the heterocyclic N-ring atoms are substituted by several glycidyl groups, in pharmaceutical compositions” (Henkel Kommanditgesellschaft auf Aktien, priority 1980, dated 1981).
Where two headings read alike, the source gives them in different places.

Tested on: Tumorart P 388 (Leukämie)
Experiment: Survival of mice bearing P 388 leukemia (NCI protocol 1200), T/C
Type: in vivo, Maus
Excerpt: Die nachfolgenden Versuche wurden durchgeführt nach Testvorschriften des National Cancer Institute Bethesda, Maryland 200014, veröffentlicht in Cancer Chemotherapy Reports" Part. 3, September 1972, Vol. 3, Nr. 2. Als Wirksubstanz wurde 1,3-Diglycidyl-benzimidazolon des i vorstehenden Beispiels 1 verwendet. Die Substanz wurde als wäßrige, 1%ige Injektionslösung unmittelbar vor der Applikation frisch hergestellt.
Bei Mäusen wurde gemäß Protokoll 1200 (Seite 91, c.) die Tumorart P 388 (Leukämie) i.p. mit 10^6 Zellen/Maus gesetzt. Die unbehandelten Tiere hatten eine mittlere überlebensdauer von 9,9 Tagen.
Es wird der Wirkstoff appliziert. Der Wirkstoff wird dabei in 9.Gaben in unterschiedlichen Versuchsreihen einmal zu je 200 mg/kg und in einer anderen zu 100 mg/kg und in einer dritten Versuchsreihe zu je 50 mg/kg verabreicht. In beiden Fällen wird eine signifikante Verlängerung der Lebensdauer der behandelten Testtiere gegenüber der Kontrollgruppe der nicht behandelten Tiere erzielt. […] Bei der Testgruppe mit der Dosis von 100 mg/kg beträgt die durchschnittliche Lebenserwartung der Versuchstiere 18 Tage, T/C 181 %. Die Gruppe mit der Dosis 50 mg/kg hatte eine durchschnittliche Lebenserwartung von 15,3 Tagen, T/C 154 %. […]

Compound `O=C1N(CC2CO2)CCN1CC1CO1` (centres unmarked) [Beispiel 18 a), Diglycidylethylenharnstcff] has a response vs control in vivo at 25 mg/kg (Mus musculus, P388, read-out: Testergebnis T/C (T/C-Wert), 25 mg/kg, second series, unit inferred) of 119%, a response vs control in vivo at 50 mg/kg (Mus musculus, P388, read-out: Testergebnis T/C (T/C-Wert), 50 mg/kg per single dose, first series, unit inferred) of 130% and a response vs control in vivo at 50 mg/kg (Mus musculus, P388, read-out: Testergebnis T/C (T/C-Wert), 50 mg/kg, second series, unit inferred) of 142%. The response vs control in vivo at 100 mg/kg (Mus musculus, P388, read-out: Testergebnis T/C (T/C-Wert), 100 mg/kg per single dose, first series, unit inferred) was 155%, the response vs control in vivo at 100 mg/kg (Mus musculus, P388, read-out: Testergebnis T/C (T/C-Wert), 100 mg/kg, second series, unit inferred) was 158% and the response vs control in vivo at 200 mg/kg (Mus musculus, P388, read-out: Testergebnis T/C (T/C-Wert), 200 mg/kg per single dose, first series, unit inferred) was 206%. It also gave a response vs control in vivo at 200 mg/kg (Mus musculus, P388, read-out: Testergebnis T/C (T/C-Wert), 200 mg/kg, second series, unit inferred) of 213%.
With `O=c1n(CC2CO2)c2cc(Cl)c(Cl)cc2n1CC1CO1` (centres unmarked) [R2 -Cl R3 -Cl, N,N-Diglycidyl-5,6-di-chlor-benzimidazolon] the response vs control in vivo at 50 mg/kg (Mus musculus, P388, 50 mg/kg per single dose, 9 doses, first test series, read-out: Verlängerungsrate T/C (Testergebnis in % T/C)) was 158% and the response vs control in vivo at 100 mg/kg (Mus musculus, P388, 100 mg/kg per single dose, 9 doses, first test series, read-out: Verlängerungsrate T/C (Testergebnis in % T/C)) was 120%.
With `CN1C(=O)N(CC2CO2)C2C1N(CC1CO1)C(=O)N2C` (centres unmarked) [Beispiel 5, 3,6 Diglycidyl-1,4-dimethylglykoluril] the “Verlängerungsrate T/C (Testergebnis in % T/C)” value (50 mg/kg per single dose, 9 doses, first test series) was 134%, the “durchschnittliche Lebenserwartung der Versuchstiere” value (100 mg/kg per single dose, 9 doses) was 15,8 Tage and the “Verlängerungsrate T/C (Testergebnis in % T/C)” value (100 mg/kg per single dose, 9 doses, first test series) was 157%. For the same compound, the “Verlängerungsrate T/C (Testergebnis in % T/C)” value (200 mg/kg per single dose, 9 doses, first test series) was 190%.
For `CC1(C)C(=O)N(CC2CO2)C(=O)N1CN1C(=O)N(CC2CO2)C(=O)C1(C)C` (centres unmarked) [[drawing] r20], the response vs control in vivo at 200 mg/kg (Mus musculus, P388, 200 mg/kg per single dose, 9 doses, first test series, read-out: Verlängerungsrate T/C (Testergebnis in % T/C)) was 153%.
